{"source": "patent US7319094B2", "about": "“Increased and sustained in vivo gene expression using a nucleic acid, histone and amphipathic compound composition” (Rhode Island Hospital, priority 2001, dated 2008)", "key": {"[1]": {"tested_on": "AD7c-NTP", "assay": "AD7c-NTP expression in stably transfected PNET2 cells (LacSwitch II inducible system), Western blot / MICE assay", "assay_type": "cell-based, human", "description": "Prior to the invention, cells stably transfected with AD7c-NTP could not be maintained because of progressive cell death. Therefore, an inducible system of AD7c-NTP expression was established using the LacSwitch II mammalian expression vector (Stratagene, La Jolla, Calif.). PNET2 human CNS neuronal cells were stably transfected with the pCMVLacII vector in which the Lac repressor protein driven by a CMV promoter. The Lac repressor protein is targeted to the nucleus by the nuclear localization sequence. […]\nStandard Western blot assays wew used to measure cellular levels of p53, Bcl-2, p21/Waf1, phospho-tau, tau, c-fos, NTP, and activated (phosphorylated) forms of Erk mitogen activated protein (MAP) kinase, amino-terminal c-jun-activated kinase (pJNK), and p38/HOG1. […] Protein concentrations were measured using the BCA assay (Pierce, Rockford, Ill.). Samples containing 60 μg of protein were fractionated by sodium dodecyl sulfate polyacrylamide gel electrophoresis (SDS-PAGE), then transferred to PVDF membranes, and analyzed by Western immunoblotting. Immunoreactivity was detected with horseradish peroxidase conjugated secondary IgG and PicoWest enhanced chemiluminescence reagents (Pierce Chemical Company, Rockford, Ill.). CAT activity was measured using known methods. […]"}, "[2]": {"tested_on": "GAPDH", "assay": "GAPDH immunoreactivity in AD7c-NTP-transfected PNET2 cells, MICE assay", "assay_type": "cell-based, human", "settings": "IPTG 3 mM", "description": "The MICE assay is known in the art (e.g., as described by de la Monte et al., 1999, Biotechniques 26:107301076). The assay is a rapid and sensitive method for quantifying immunoreactivity in 96-well micro-cultures and combines the advantages of the enzyme-linked immunosorbant assay with immunocytochemical staining to permit sensitive in situ quantification of protein expression with values normalized to cell density. The cells were fixed in Histochoice (Amresco, Solon, Ohio), permeabilized with 0.05% saponin in Tris-buffered saline (50 mM Tris, pH 7.5, 0.9% NaCl; TBS), and blocked with Superblock-TBS (Pierce, Rockford, Ill.). […] Immunoreactivity was detected using horseradish peroxidase conjugated secondary antibody (Pierce, Rockford, Ill.) and the TMB soluble peroxidase substrate (Pierce, Rockford, Ill.). Absorbances were measured at 450 nm using a Spectracount plate reader.\nTo compare the levels of protein expression it was necessary to correct for differences in cell density. […] The absorbances (560 nm) were measured using a Spectracount plate reader (Packard Instrument Company, Meriden, Conn.). The MICE index was calculated from the ratio of the absorbances measured for immunoreactivity and cell density. Coomassie blue absorbance increases linearly with cell density between 1×10^4 and 5×10^5 cells per well. Eight or 16 replicate culture wells were analyzed in each experiment. […]"}}}
{"smiles": "CC(C)S[C@@H]1O[C@H](CO)[C@H](O)[C@H](O)[C@H]1O", "note": "[IPTG, Isopropyl-1-[…]-D-thiogalactopyranoside]", "values": [{"measurement": "increase in N314-immunoreactive NTP (MICE assay)", "setting": "[1]; IPTG 3 mM, 24 hours of induction", "value": "greater than five-fold"}, {"measurement": "optimum concentration for inducing gene expression", "setting": "[1]; PNET2 clones", "value": 3, "unit": "mM"}, {"measurement": "levels of GAPDH (MICE assay)", "setting": "[2]", "value": "no change"}]}
